Results: ChEMBL document CHEMBL1201862, “PubChem BioAssay data set” (2004)
Calls of active or inactive are those of the source.

Tests used:
[1] = target: T1, Heat shock factor protein 1 (Mus musculus, UniProt P38532); experiment: enhancement of HSF1-driven luciferase signal – cell-based, NIH3T3, luminescence, dose retest, confirmation (AID 435004); format: functional;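 note: stress induced by proteasome inhibitor MG132 added 30 min after compound; luciferase reporter driven by HSF1 response element in NIH3T3 cells; actives raise luminescence as potentiators of the MG132 stress response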
T1 sequence (P38532 whole entry): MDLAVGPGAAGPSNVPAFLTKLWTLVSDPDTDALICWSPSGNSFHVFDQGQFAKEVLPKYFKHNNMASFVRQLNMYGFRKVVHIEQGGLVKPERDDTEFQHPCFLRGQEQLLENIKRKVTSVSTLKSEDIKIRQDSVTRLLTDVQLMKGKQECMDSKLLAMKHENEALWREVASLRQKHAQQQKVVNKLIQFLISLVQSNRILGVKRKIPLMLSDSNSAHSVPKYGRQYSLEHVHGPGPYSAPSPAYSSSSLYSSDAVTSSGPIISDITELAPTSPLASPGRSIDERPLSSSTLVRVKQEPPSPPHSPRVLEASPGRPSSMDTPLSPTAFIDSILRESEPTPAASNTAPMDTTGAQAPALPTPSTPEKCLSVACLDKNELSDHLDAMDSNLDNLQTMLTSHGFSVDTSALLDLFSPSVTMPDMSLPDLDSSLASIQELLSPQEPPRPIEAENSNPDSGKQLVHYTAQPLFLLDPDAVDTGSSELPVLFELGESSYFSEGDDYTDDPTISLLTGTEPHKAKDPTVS

[2] = Luminescence Cell-Based Dose Response HTS to Identify Activators of Luciferase Translation or Activity in H4 […] Cells. [Related pubchem assays: 1829 (Project Summary), 1814 (Primary HTS)]; format: functional
H4 = experiment: Luminescence Cell-Based Dose Response HTS to Identify Activators of 5'UTR Stem-Loop Driven Prion Protein mRNA Translation in H4 Neuroglioblastoma Cells. [Related pubchem assays: 1829 (Project Summary), 1814 (Primary HTS)]; format: functional; conditions: Homo sapiens
[3] = Luminescence Cell-Based Dose Confirmation HTS to Identify Activators of 5'UTR Stem-Loop Driven Alpha-Synuclein mRNA Translation in H4 Neuroglioblastoma Cells. [Related pubchem assays: 1829 (Project Summary), 1814 (Primary HTS)]; format: functional
[4] = target: T2, Zinc finger protein mex-5 (Caenorhabditis elegans, UniProt Q9XUB2); experiment: potency of MEX-5 RNA-binding blockers – biochemical, C. elegans, fluorescence polarization, dose response (AID 1960)
T2 sequence (Q9XUB2 whole entry): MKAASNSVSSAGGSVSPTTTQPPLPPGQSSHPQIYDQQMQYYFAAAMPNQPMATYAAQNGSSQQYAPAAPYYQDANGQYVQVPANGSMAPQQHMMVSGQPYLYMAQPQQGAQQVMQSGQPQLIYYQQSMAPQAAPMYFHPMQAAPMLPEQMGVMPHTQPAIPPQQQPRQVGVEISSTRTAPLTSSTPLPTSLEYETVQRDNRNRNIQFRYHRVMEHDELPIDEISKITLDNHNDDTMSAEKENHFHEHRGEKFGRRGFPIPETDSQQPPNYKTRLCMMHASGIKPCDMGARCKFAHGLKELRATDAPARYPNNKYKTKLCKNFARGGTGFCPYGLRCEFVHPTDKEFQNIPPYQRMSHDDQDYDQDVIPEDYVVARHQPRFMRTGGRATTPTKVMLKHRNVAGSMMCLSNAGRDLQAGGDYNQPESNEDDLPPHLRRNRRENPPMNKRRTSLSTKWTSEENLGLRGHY

[5] = target: T3, RNA-binding protein pos-1 (Caenorhabditis elegans, UniProt G5EF15); experiment: disruptors of C. elegans POS-1 RNA interaction – biochemical, fluorescence polarization, dose response (AID 1964);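 note: purified POS-1 fused to maltose binding protein made in E. coli; potency of compounds blocking POS-1 binding to fluorescent RNA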
T3 sequence (G5EF15 whole entry): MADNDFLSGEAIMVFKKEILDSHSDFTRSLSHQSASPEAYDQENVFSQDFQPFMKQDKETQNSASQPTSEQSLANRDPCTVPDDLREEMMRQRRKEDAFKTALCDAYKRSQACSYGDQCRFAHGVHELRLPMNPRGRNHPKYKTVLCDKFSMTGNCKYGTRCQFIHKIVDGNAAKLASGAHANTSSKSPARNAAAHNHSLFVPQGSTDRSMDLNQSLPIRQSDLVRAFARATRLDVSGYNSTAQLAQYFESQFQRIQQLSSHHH

[6] = viability of uninfected HEp-2 cells – cell-based, HTS, cytotoxicity control for RSV inhibitor project, dose response (AID 2410); format: functional; conditions: human respiratory syncytial virus
Large T antigen = Large T antigen (Simian virus 40, UniProt P03070); format: functional, Betapolyomavirus macacae;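 note: Confirmatory-stage PubChem screen for compounds that inhibit SV40 T antigen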
Large T antigen, sequence (P03070 whole entry): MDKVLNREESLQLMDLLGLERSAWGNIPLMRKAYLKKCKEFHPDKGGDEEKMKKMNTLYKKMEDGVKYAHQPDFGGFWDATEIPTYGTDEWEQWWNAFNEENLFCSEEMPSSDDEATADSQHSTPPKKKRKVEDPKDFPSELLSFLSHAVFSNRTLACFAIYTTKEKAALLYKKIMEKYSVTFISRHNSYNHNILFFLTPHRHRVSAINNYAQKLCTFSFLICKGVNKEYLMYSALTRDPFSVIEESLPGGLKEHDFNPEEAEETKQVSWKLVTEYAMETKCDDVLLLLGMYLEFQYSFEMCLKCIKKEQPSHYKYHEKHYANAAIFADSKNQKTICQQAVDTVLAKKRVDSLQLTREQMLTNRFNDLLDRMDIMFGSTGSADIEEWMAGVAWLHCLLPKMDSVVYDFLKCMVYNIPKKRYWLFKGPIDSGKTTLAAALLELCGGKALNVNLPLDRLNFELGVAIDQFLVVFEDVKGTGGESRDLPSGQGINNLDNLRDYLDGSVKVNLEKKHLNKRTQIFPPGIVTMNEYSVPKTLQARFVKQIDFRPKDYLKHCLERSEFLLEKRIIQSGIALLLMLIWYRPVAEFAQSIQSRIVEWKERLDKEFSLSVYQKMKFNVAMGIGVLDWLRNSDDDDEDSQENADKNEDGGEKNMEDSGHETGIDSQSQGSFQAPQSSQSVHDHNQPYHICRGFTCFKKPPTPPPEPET

[7] = Trypanosoma cruzi growth suppression in host cells – NIH3T3 host cells, beta-gal luminescence, confirmation (AID 2044); format: functional, cell-based;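 note: intracellular parasites grown in NIH/3T3 mouse fibroblasts as host cells; luminescent beta-galactosidase reporter signal from transgenic T. cruzi replicating inside host cells; inhibitors lower the luminescence signal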
[8] = NIH3T3 cell viability loss – ATP luminescence, mouse fibroblasts, counter-screen, dose response (AID 2010); format: functional, cell-based;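 note: cells exposed to compound for about 90 hours before reading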
[9] = target: T1, Heat shock factor protein 1; experiment: decrease of HSF1-responsive luciferase luminescence – cell-based, NIH3T3, dose retest, confirmation (AID 2382); format: functional;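 note: NIH3T3 fibroblasts with HSF1-driven luciferase reporter stressed by proteasome inhibitor MG132; luminescence from HSF1-driven luciferase expression after 8 hours of MG132 stress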
[10] = target: T4, Rac GTPase-activating protein 1 (Homo sapiens, UniProt Q9H0H5); experiment: blockers of MgcRacGAP-driven Rac1 GTP hydrolysis – biochemical, ADP Hunter fluorescence, primary and confirmatory, confirmation (AID 624330); format: functional
T4 sequence (Q9H0H5 whole entry): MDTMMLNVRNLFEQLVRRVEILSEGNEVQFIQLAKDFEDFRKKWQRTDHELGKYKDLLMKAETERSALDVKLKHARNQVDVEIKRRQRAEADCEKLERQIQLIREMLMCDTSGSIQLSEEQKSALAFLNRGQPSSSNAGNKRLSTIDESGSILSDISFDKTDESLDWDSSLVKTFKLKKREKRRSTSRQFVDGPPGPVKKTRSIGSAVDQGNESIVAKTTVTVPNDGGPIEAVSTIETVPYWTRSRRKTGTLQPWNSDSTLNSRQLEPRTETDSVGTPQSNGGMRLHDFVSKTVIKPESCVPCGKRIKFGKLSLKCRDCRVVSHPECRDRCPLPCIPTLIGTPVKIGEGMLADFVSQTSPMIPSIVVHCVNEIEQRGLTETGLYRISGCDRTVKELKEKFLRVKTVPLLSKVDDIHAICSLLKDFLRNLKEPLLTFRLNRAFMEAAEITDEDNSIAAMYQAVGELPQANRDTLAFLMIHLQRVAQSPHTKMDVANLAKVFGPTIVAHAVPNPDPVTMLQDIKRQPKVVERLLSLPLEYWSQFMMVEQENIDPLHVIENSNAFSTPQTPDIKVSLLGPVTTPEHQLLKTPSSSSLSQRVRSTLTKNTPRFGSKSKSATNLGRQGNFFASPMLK

Cytochrome P450 2C19 = Cytochrome P450 2C19 (Homo sapiens, UniProt P33261); experiment: Cytochrome panel assay with activity outcomes. Panel member name: p450-cyp2c19 Compounds with AC50 equal or less than 10 uM are considered active; format: functional; conditions: read-out: AC50
Cytochrome P450 2C19, sequence (P33261 whole entry): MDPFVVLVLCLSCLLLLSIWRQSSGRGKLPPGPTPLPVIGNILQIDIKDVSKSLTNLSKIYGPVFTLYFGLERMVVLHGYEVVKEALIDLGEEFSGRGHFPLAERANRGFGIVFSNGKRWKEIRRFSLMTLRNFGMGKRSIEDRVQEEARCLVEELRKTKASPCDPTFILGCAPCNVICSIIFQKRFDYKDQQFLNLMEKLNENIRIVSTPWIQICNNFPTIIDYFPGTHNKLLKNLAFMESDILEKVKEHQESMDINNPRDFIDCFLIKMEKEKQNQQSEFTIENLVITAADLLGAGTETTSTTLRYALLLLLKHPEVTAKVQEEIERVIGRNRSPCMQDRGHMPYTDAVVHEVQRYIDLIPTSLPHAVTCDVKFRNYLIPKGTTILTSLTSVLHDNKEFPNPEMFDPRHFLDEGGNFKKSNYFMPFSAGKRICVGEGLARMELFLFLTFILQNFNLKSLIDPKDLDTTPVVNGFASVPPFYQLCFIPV

## O=C(CN(CC1CCCO1)S(=O)(=O)c1ccc(S(=O)(=O)NC2CC2)cc1)Nc1ccccc1 (centres undefined)
[1]
  EC50: > 260 µM (inactive)

## Nc1ccccc1C(=O)N/N=C1\C2CN3CCN(C2)CC1(c1ccccc1)C3
[2]
  EC50: > 120 µM (not active)
H4
  EC50: 8.13 µM (active)
[3]
  EC50: > 120 µM (not active)

## COc1ccc(-n2cc(CNCc3cnc4ccccn34)c(-c3cccc(F)c3)n2)cc1
[4]
  EC50: > 300 µM (inconclusive)
[5]
  EC50: > 300 µM (not active)

## O=c1c2sccc2nc(SCc2ccc([N+](=O)[O-])cc2)n1Cc1ccccn1
[1]
  EC50: 57.3 µM (active)
[6]
  CC50: 20.4 µM (active)

## COc1cccc2c(N/N=C/c3ccc(O)c(O)c3)cc(C)nc12
Large T antigen
  IC50: 23.8 µM (active)

## COc1cccc(CNc2nc3ccccc3n2C(C)C)c1O
[1]
  EC50: > 260 µM (inactive)

## CCOC(=O)C1CCN(C(=O)CCC(=O)NNc2nc3ccccc3c3nc(C)nn23)CC1
[4]
  EC50: 1.41 µM (active)
[5]
  EC50: 53.9 µM (active)

## Cc1ccc(C)c(Cn2nnc3c(=O)[nH]c(C4CCN(C(=O)c5cccs5)CC4)nc32)c1
[1]
  EC50: > 260 µM (inactive)

## CCOc1ccccc1/C=N/Nc1ccccc1[N+](=O)[O-]
[2]
  EC50: 4.07 µM (active)
H4
  EC50: 62.5 µM (inconclusive)
[3]
  EC50: 0.351 µM (active)

## CN(C)c1ccc(C(C[N+](=O)[O-])c2c(N)n(C)c(=O)n(C)c2=O)c(F)c1C#N (centres undefined)
[1]
  EC50: > 260 µM (inactive)

## CC1(C)CC(=O)c2sc(NC(=O)C3COc4ccccc4O3)nc2C1 (centres undefined)
[2]
  EC50: 15.9 µM (active)
H4
  EC50: > 120 µM (not active)
[3]
  EC50: > 120 µM (not active)

## N#CC1=C(N)Oc2c(c(=O)oc3ccccc23)C1c1ccccc1OC(=O)c1cccs1 (centres undefined)
[2]
  EC50: > 120 µM (not active)
H4
  EC50: > 120 µM (not active)
[3]
  EC50: > 120 µM (not active)

## Cc1cc(CNC(=O)c2cccc(OC3CCN(S(=O)(=O)N(C)C)CC3)c2)on1
[2]
  EC50: 10.8 µM (active)
H4
  EC50: > 120 µM (not active)
[3]
  EC50: 8.49 µM (active)

## CC(=O)Nc1ccc(C2=NN(Cc3nnc(-c4ccccc4)o3)C(=O)SC2)cc1
[1]
  EC50: > 260 µM (inactive)

## Cc1nnc(SCc2ccccc2)n1CC1CCCO1 (centres undefined)
Large T antigen
  IC50: > 100 µM (active)

## COc1ccc(/C=N/NC(=O)c2ccc(N(C)S(=O)(=O)c3ccccc3)cc2)cc1
[4]
  EC50: > 300 µM (not active)
[5]
  EC50: > 300 µM (not active)

## Cc1cccc(NC(=O)c2sc(-c3ccccc3)nc2-c2ccc([N+](=O)[O-])cc2)c1
[7]
  EC50: 1.53 µM (active)
[8]
  EC50: > 60 µM (not active)
[9]
  EC50: > 195 µM (not active)

## COc1ccc(/C=N/Nc2nc(N3CCCC3)nc(N3CCCC3)n2)cc1O
Large T antigen
  IC50: 10.2 µM (active)
[10]
  IC50: 62.2 µM (active)

## CC1(OC(=O)c2cccs2)C(=O)C=C2C=C3CCCN3C=C2C1=O (centres undefined)
[4]
  EC50: 35.4 µM (active)
[5]
  EC50: > 300 µM (not active)

## CN1C(=O)NC(c2cccc(O)c2)C(C(=O)c2cccs2)C1(O)C(F)(F)F (centres undefined)
[2]
  EC50: > 120 µM (not active)
H4
  EC50: 3.94 µM (active)
[3]
  EC50: > 120 µM (not active)

## Cc1ccc(OCCC(=O)N2CCN(c3ccc(O)cc3)CC2)cc1
Large T antigen
  IC50: 11.8 µM (active)

## N#Cc1c(-c2ccccc2)c(-c2ccccc2)nn(CC(=O)NNC(=O)Nc2ccccc2)c1=O
[2]
  EC50: 15.2 µM (active)
H4
  EC50: > 120 µM (not active)
[3]
  EC50: > 120 µM (not active)

## O=Nc1ccc(NOC(=O)c2ccccc2Br)cc1
Large T antigen
  IC50: 30.1 µM (active)

## COCCCNC(=S)N/N=C/c1ccc(O)cc1O
Large T antigen
  IC50: 9.14 µM (active)

## CCOC(=O)c1nnsc1Nc1ccc(C)c(C)c1
[1]
  EC50: 104 µM (active)

## Cc1ccc(CCNC(=O)C2CCN(S(=O)(=O)c3ccc4c(c3)NC(=O)CO4)CC2)cc1
[1]
  EC50: > 260 µM (inactive)

## CCOC(=O)c1c(CN(C)C)n(C)c2ccc(OC(C)=O)cc12
[9]
  EC50: > 195 µM (not active)

## CN1C(=O)C2(Oc3ccccc3C3CC(c4ccccc4)=NN32)c2ccccc21 (centres undefined)
[2]
  EC50: 31.6 µM (active)
H4
  EC50: 14.6 µM (active)
[3]
  EC50: 11.8 µM (active)

## O=C(O)C1OC(Oc2cc3oc(-c4ccccc4)cc(=O)c3c(O)c2O)C(O)C(O)C1O (centres undefined)
[4]
  EC50: 11.9 µM (active)
[5]
  EC50: 27.2 µM (active)

## Cc1cccc(N2C(=O)C3C(c4ccccc4)OC4(C(=O)c5ccccc5C4=O)C3C2=O)c1 (centres undefined)
[2]
  EC50: > 120 µM (not active)
H4
  EC50: > 120 µM (not active)
[3]
  EC50: > 120 µM (not active)

## N#CCCn1cc(C(=O)Nc2ccc([N+](=O)[O-])cc2)c(-c2ccccc2)n1
[9]
  EC50: > 195 µM (not active)

## CCOc1ccc2nc(N3CCOCC3)nc(C)c2c1
[2]
  EC50: 0.256 µM (active)
[3]
  EC50: 32 µM (active)

## COC(=O)c1cnc(N2CCCN(S(=O)(=O)c3ccc(C(F)(F)F)cc3)CC2)nc1C(F)(F)F
[7]
  EC50: 3.03 µM (active)
[8]
  EC50: > 60 µM (not active)
[1]
  EC50: > 260 µM (inactive)

## CCOc1cc(C(c2c(O)nc(SC)nc2O)c2c(O)nc(SC)nc2O)ccc1O
Large T antigen
  IC50: > 100 µM (active)

## CN(C)c1ccc(N2C(=O)CC(Nc3ccc(N4CCOCC4)cc3)C2=O)cc1 (centres undefined)
Large T antigen
  IC50: 12.9 µM (active)

## Cn1ccc(C(=O)Oc2ccc(C(=O)Nc3ccc(F)cc3F)cc2)n1
[2]
  EC50: 16.8 µM (active)
H4
  EC50: > 120 µM (not active)
[3]
  EC50: > 120 µM (not active)

## Cc1cccc(/C=N/c2sc3c(c2C#N)CCN(Cc2ccccc2)C3)c1O
[2]
  EC50: 30.1 µM (active)
H4
  EC50: 20.2 µM (active)
[3]
  EC50: 15.2 µM (active)

## COCC/N=C1/Sc2nc3c(C)cccc3cc2CN1Cc1ccco1
Cytochrome P450 2C19
  AC50: 2.51 µM (inconclusive)
[6]
  CC50: 39.2 µM (active)
Large T antigen
  IC50: 67.5 µM (active)

## O=[N+]([O-])c1ccc(/C=N/N=C(/Nc2ccccn2)c2ccccn2)cc1
[2]
  EC50: > 120 µM (not active)
H4
  EC50: > 120 µM (not active)
[3]
  EC50: > 60 µM (not active)
